Patent publication US20090196912A1, “Pyridinylamines” (GPC Botech AG, priority 2004, published 2009)

Tests used:
Assay in all cases: Generic kinase assay (33P-ATP, Myelin Basic Protein)
Assay type in all cases: biochemical
p56Lck = p56Lck (Homo sapiens, UniProt P06239); conditions: class symbol: % inhibition at 10 μM or IC50; for inhibition at 10 µM: 1 h, read-out: Inhibitory effect on target p56Lck
Experimental: (§1) In order to determine the inhibitory effect of the compounds of the subject invention on various target enzymes a generic kinase assay was established.
(§2) Reactions were performed in 96-Well U-bottom microtiter plates (Greiner Bio-One; Frickenhausen/Germany, Cat. No. 650161), hereinafter designated “Assay Plates”. 10 μl of a solution comprising 40 μM Myelin Basic Protein (Invitrogen; Carlsbad, Calif./USA; Cat. No. 13228-010) and 4 μM ATP in three-fold concentrated Reaction Buffer (60 mM Tris-HCl, pH 7.5; 30 mM MgCl2; 3 mM dithiothreitol) were added into each well of the Assay Plate. 10 μl of serial dilutions of the compounds of the subject invention, dissolved in 4% DMSO, were then added into each well, except for Positive Control. Wells (C+ wells) and Negative Control Wells (C− wells). 10 μl of 4% DMSO without compounds were added to C+ and C− wells. 10 μl of a 500 mM solution of EDTA in water was then added to C− wells. Then 10 μl of a solution containing 50 μCi/ml Adenosine 5′-[γ-^33P]triphosphate in water was added to each well. To start the reaction 10 μl of the kinase to be assayed was added to each well. The optimal amount of kinase in the assay was determined to be the amount which yields to a turn-over of about 10% of ATP. Assay Plates were incubated for one hour at room temperature. Then 10 μl of a 500 mM solution of EDTA in water was added to each well except C− wells. Samples were now ready for measurement.
(§3) Measurements were preformed in 96-Well MAPH-Filter Plates (Millipore; Billerica, Mass./United States; Cat. No. MAPHNOB50), hereinafter designated “Measurement Plates”. Measurement Plates were washed with 200 μl of a 0.75% H3PO4 solution per well. The H3PO4 solution was exhausted using a Millipore vacuum station. 60 μl of a 0.75% H3PO4 solution was then added into each well, followed by the transfer of 30 μl of each well from the Assay Plate into the corresponding wells of the Measurement Plate. The Measurement Plate was incubated for 30 minutes at room temperature. Thereafter each well was washed three times with 200 μl of a 0.75% H3PO4 solution using a Millipore vacuum station. 20 μl of scintillation liquid (Supermix Liquid Szintillator; Perkin Elmer, Wellesley. Mass./United States; Cat. No. 1200-439) was then added to each well of the Measurement Plate. The plate was sealed and stored for 30 minutes in the darkness before radioactivity was quantified in a MicroBeta Scintillation Counter (Perkin Elmer, Wellesley. Mass./United States).

c-kit = c-kit (Homo sapiens, UniProt P10721); conditions: 1 h; class symbol: % inhibition at 10 μM or IC50; read-out: Inhibitory effect on target c-kit
Experimental: as §1, §2, §3

Abl = Abl (Homo sapiens, UniProt P00519); conditions: 1 h; class symbol: % inhibition at 10 μM or IC50; read-out: Inhibitory effect on target Abl
Experimental: as §1, §2, §3

EGFR = EGFR (Homo sapiens, UniProt P00533); conditions: class symbol: % inhibition at 10 μM or IC50
Experimental: as §1, §2, §3

cRaf = cRaf (Homo sapiens, UniProt P04049); conditions: class symbol: % inhibition at 10 μM or IC50; for inhibition at 10 µM: 1 h, read-out: Inhibitory effect on target cRaf
Experimental: as §1, §2, §3

RICK = RICK (Homo sapiens, UniProt O43353); conditions: class symbol: % inhibition at 10 μM or IC50
Experimental: as §1, §2, §3

PDGFR = conditions: class symbol: % inhibition at 10 μM or IC50
Experimental: as §1, §2, §3

Sequence of RICK (O43353 whole entry, species assumed): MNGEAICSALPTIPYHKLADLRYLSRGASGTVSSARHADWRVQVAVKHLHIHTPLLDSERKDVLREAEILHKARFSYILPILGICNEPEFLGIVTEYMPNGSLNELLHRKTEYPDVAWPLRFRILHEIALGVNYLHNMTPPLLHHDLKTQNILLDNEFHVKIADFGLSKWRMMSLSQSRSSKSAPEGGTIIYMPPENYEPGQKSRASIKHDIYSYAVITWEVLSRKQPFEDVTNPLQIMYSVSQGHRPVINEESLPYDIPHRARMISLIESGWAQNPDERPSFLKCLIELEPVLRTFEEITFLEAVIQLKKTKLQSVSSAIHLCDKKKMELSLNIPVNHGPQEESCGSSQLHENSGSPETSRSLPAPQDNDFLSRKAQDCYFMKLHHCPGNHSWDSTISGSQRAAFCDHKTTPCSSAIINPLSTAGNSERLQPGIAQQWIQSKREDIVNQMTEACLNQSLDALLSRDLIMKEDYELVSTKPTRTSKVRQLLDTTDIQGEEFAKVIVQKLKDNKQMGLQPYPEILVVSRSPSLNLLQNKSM
Sequence of cRaf (P04049 whole entry, species assumed): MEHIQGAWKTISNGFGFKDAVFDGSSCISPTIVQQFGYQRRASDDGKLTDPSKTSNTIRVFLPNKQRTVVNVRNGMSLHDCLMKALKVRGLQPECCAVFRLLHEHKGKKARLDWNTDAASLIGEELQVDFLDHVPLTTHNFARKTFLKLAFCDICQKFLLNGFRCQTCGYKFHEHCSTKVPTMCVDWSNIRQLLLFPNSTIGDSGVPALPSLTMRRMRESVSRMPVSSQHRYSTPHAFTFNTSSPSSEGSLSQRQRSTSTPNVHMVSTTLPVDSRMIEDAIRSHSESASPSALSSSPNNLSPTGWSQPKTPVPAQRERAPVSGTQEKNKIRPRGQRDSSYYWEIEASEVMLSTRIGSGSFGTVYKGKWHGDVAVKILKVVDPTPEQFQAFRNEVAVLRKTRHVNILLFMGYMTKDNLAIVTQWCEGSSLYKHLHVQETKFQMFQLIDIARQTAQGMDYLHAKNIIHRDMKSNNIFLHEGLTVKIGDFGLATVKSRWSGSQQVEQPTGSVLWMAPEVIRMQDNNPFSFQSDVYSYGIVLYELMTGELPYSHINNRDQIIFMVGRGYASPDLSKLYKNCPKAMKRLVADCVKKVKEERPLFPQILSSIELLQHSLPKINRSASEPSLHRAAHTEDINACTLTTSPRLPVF
Sequence of EGFR (P00533 25-1210, species assumed): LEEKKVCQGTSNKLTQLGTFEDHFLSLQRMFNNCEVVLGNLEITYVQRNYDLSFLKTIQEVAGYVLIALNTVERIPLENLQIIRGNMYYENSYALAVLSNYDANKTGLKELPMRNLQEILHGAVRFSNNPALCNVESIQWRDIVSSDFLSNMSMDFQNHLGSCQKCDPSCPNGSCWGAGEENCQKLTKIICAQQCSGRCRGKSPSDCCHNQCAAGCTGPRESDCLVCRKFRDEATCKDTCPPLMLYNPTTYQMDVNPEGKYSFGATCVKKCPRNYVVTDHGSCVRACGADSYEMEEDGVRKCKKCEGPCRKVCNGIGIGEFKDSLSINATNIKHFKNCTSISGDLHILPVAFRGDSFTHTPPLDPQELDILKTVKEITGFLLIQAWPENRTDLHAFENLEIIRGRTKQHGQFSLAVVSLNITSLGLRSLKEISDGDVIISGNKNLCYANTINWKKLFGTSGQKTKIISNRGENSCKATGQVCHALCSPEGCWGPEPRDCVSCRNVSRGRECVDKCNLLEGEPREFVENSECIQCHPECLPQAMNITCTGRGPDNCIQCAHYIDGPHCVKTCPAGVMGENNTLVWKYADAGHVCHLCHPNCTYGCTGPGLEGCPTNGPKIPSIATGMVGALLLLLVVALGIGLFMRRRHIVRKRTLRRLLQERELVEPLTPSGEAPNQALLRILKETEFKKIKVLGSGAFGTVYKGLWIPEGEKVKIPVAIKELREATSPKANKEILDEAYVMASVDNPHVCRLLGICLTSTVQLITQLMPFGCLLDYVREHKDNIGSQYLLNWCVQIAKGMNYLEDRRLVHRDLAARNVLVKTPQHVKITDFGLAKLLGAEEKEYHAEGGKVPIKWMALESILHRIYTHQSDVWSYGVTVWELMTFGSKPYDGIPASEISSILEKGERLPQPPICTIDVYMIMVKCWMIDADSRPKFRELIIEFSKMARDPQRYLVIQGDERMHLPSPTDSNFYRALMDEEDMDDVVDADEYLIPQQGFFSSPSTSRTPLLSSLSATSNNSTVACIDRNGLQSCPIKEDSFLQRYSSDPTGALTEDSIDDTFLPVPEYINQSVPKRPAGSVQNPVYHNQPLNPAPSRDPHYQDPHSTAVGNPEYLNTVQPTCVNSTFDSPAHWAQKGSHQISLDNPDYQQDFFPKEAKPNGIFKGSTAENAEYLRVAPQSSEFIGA
Sequence of p56Lck (P06239 whole entry, species assumed): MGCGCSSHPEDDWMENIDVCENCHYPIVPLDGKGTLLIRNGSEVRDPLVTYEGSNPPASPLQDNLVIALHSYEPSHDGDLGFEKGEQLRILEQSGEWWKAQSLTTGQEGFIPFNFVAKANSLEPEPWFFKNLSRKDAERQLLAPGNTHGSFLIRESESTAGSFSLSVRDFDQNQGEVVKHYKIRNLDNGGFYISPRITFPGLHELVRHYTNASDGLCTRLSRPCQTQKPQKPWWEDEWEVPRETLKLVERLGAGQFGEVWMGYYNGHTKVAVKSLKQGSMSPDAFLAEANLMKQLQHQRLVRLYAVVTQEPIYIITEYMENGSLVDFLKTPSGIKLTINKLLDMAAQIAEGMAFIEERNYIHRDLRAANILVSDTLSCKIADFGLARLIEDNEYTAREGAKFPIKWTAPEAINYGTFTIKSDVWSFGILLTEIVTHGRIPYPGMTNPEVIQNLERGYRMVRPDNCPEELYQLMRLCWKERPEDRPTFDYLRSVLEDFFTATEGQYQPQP
Sequence of Abl (P00519 whole entry, species assumed): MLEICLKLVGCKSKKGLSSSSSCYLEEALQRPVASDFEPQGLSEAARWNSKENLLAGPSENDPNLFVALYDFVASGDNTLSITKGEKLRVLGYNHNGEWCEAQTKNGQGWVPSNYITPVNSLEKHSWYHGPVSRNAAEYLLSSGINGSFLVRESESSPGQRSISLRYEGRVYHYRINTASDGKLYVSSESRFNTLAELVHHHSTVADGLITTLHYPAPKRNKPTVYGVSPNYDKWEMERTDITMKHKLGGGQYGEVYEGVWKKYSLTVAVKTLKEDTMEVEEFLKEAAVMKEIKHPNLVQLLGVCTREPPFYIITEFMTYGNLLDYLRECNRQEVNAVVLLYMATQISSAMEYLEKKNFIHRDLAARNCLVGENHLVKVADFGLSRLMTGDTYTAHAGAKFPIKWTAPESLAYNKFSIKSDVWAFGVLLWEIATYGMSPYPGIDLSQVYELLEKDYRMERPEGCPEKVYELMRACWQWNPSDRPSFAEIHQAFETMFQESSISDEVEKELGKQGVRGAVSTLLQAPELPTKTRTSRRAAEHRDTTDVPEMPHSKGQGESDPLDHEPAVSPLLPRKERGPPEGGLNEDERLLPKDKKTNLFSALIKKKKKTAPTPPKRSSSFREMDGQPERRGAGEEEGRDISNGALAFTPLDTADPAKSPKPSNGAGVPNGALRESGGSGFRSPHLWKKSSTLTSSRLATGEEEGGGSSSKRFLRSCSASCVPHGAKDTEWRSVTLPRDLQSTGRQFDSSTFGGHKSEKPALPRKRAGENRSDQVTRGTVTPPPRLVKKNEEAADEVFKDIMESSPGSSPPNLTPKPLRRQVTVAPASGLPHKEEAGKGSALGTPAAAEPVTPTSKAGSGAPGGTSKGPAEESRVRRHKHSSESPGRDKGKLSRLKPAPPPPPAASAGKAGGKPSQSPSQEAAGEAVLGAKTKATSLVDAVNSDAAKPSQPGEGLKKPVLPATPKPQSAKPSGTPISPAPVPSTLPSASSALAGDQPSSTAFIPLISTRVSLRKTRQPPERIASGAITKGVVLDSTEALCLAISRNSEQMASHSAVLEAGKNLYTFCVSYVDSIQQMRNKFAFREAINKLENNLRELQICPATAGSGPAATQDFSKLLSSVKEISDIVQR
Sequence of c-kit (P10721 26-976): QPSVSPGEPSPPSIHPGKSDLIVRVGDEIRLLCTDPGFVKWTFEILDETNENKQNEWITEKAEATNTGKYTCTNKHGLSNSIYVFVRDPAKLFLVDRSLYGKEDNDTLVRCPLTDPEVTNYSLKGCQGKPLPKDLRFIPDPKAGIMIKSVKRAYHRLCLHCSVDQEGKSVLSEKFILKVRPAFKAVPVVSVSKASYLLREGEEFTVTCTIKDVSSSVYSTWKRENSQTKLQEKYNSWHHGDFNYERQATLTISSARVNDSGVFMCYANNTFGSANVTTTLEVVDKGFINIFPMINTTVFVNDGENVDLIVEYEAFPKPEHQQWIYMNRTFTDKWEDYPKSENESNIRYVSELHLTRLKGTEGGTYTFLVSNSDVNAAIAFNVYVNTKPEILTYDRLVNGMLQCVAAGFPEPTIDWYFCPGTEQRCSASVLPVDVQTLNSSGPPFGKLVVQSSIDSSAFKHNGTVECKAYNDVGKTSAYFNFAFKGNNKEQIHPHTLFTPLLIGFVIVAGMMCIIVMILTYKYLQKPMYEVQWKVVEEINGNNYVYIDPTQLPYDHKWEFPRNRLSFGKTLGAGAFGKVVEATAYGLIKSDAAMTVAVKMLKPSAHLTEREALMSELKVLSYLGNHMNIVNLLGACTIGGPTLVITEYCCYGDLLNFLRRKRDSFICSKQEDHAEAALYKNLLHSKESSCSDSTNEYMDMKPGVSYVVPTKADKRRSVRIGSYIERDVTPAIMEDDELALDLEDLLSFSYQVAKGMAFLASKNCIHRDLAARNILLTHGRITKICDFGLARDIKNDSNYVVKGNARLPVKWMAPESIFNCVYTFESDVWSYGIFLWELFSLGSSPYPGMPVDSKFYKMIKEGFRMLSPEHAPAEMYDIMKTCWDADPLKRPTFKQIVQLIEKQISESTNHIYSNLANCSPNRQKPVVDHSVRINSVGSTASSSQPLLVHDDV

| Compound | inhibition at 10 µM (p56Lck) [%] | inhibition at 10 µM (c-kit) [%] | inhibition at 10 µM (Abl) [%] | inhibition at 10 µM (cRaf) [%] | Inhibitory effect on target RICK (RICK) | Inhibitory effect on target EGFR (EGFR) | Inhibitory effect on target PDGFR (PDGFR) | Inhibitory effect on target p56Lck (p56Lck) | Inhibitory effect on target cRaf (cRaf) |
| --- | --- | --- | --- | --- | --- | --- | --- | --- | --- |
| O=C(NCCO)c1cccc(-c2cncc(NCc3cccc(O)c3)c2)c1 [Compound 217, 3-[5-(3-Hydroxy-benzylamino)-pyridin-3-yl]-N-(2-hydroxy-ethyl)-benzamide] | > 90 | > 90 | 50 to 90 |  | C (C: IC50 measured: <1 μM) | A (A: 50-90% inhibition at 10 μM enzyme concentration) | A (A: 50-90% inhibition at 10 μM enzyme concentration) |  |  |
| CN(C)CCNC(=O)c1cccc(-c2cncc(NCc3cccc(O)c3)c2)c1 [Compound 224, N-(2-Dimethylamino-ethyl)-3-[5-(3-hydroxy-benzylamino)-pyridin-3-yl]-benzamide] | 50 to 90 | 50 to 90 | 50 to 90 |  | C (C: IC50 measured: <1 μM) | A (A: 50-90% inhibition at 10 μM enzyme concentration) | A (A: 50-90% inhibition at 10 μM enzyme concentration) |  |  |
| Oc1cccc(CNc2cncc(-c3cncnc3)c2)c1 [Compound 195, 3-[(5-Pyrimidin-5-yl-pyridin-3-ylamino)-methyl]-phenol] | 50 to 90 | 50 to 90 |  | 50 to 90 | C (C: IC50 measured: <1 μM) |  |  |  |  |
| COc1ccc(Nc2cncc(-c3cccc(NC(C)=O)c3)c2)cc1 [Compound 227, N-{3-[5-(4-Methoxy-phenylamino)-pyridin-3-yl]-phenyl}-acetamide] |  | 50 to 90 |  |  | C (C: IC50 measured: <1 μM) |  | A (A: 50-90% inhibition at 10 μM enzyme concentration) |  |  |
| Oc1cccc(CCNc2cncc(-c3cccc(O)c3)c2)c1 [Compound 244, 3-{5-[2-(3-Hydroxy-phenyl)-ethylamino]-pyridin-3-yl}-phenol] | 50 to 90 | 50 to 90 | 50 to 90 |  | C (C: IC50 measured: <1 μM) | B (B: >90% inhibition at 10 μM enzyme concentration) | A (A: 50-90% inhibition at 10 μM enzyme concentration) |  |  |
| COC(=O)c1cccc(CNc2cncc(-c3cccc(O)c3)c2)c1 [Compound 264, 3-{[5-(3-Hydroxy-phenyl)-pyridin-3-ylamino]mθthyl}-benzoic acid methyl ester] |  |  |  |  | A (A: 50-90% inhibition at 10 μM enzyme concentration) | A (A: 50-90% inhibition at 10 μM enzyme concentration) | A (A: 50-90% inhibition at 10 μM enzyme concentration) | A (A: 50-90% inhibition at 10 μM enzyme concentration) | A (A: 50-90% inhibition at 10 μM enzyme concentration) |
| CC(=O)Nc1cccc(-c2cncc(Nc3ccccc3)c2)c1 [Compound 194, N-[3-(5-Phenylamino-pyridin-3-yl)-phenyl]-acetamide] |  | 50 to 90 |  |  | C (C: IC50 measured: <1 μM) |  | A (A: 50-90% inhibition at 10 μM enzyme concentration) |  |  |
| COc1cncc(-c2cncc(NCc3cccc(O)c3)c2)c1 [Compound 222, 3-[(5′-Methoxy-[3,3′]bipyridinyl-5-ylamino)-methyl]-phenol] | 50 to 90 | 50 to 90 | 50 to 90 |  | C (C: IC50 measured: <1 μM) |  | A (A: 50-90% inhibition at 10 μM enzyme concentration) |  |  |
| COc1ccc(-c2cncc(NCc3cccc(O)c3)c2)cc1OC [Compound 223, 3-{[5-(3,4-Dimethoxy-phenyl)-pyridin-3-ylamino]-methyl}-phenol] | 50 to 90 | > 90 | 50 to 90 | 50 to 90 | C (C: IC50 measured: <1 μM) | A (A: 50-90% inhibition at 10 μM enzyme concentration) | A (A: 50-90% inhibition at 10 μM enzyme concentration) |  |  |
| COc1ccc(-c2cncc(NCc3cccc(O)c3)c2)cn1 [Compound 207, S—K6′-Methoxy-fS.S′lbipyridinyl-δ-ylaminoJ-mθthyll-phenol] |  |  |  |  | C (C: IC50 measured: <1 μM) |  |  | A (A: 50-90% inhibition at 10 μM enzyme concentration) |  |
| CS(=O)(=O)Nc1cccc(-c2cncc(NCc3cccc(O)c3)c2)c1 [Compound 226, N-{3-[5-(3-Hydroxy-benzylamino)-pyridin-3-yl]-phenyl}-methanesulfonamide] | 50 to 90 | > 90 | 50 to 90 |  | C (C: IC50 measured: <1 μM) | A (A: 50-90% inhibition at 10 μM enzyme concentration) | A (A: 50-90% inhibition at 10 μM enzyme concentration) |  |  |

The next lines start with results.

| inhibition at 10 µM (p56Lck) [%] | inhibition at 10 µM (c-kit) [%] | inhibition at 10 µM (Abl) [%] | inhibition at 10 µM (cRaf) [%] | Inhibitory effect on target RICK (RICK) | Compound | Inhibitory effect on target EGFR (EGFR) | Inhibitory effect on target PDGFR (PDGFR) | Inhibitory effect on target p56Lck (p56Lck) | Inhibitory effect on target cRaf (cRaf) |
| --- | --- | --- | --- | --- | --- | --- | --- | --- | --- |
| 50 to 90 | > 90 | 50 to 90 | 50 to 90 | C (C: IC50 measured: <1 μM) | OCc1cccc(-c2cncc(NCc3cccc(O)c3)c2)c1 [Compound 216, 3-{[5-(3-Hydroxymethyl-phenyl)-pyridin-3-ylamino]-methyl}-phenol] | A (A: 50-90% inhibition at 10 μM enzyme concentration) | A (A: 50-90% inhibition at 10 μM enzyme concentration) |  |  |
| 50 to 90 | > 90 |  |  | C (C: IC50 measured: <1 μM) | Oc1cccc(CNc2cncc(-c3ccc(N4CCOCC4)cc3)c2)c1 [Compound 218, 3-{[5-(4-Morpholin-4-yl-phenyl)-pyridin-3-ylamino]-methyl}-phenol] | A (A: 50-90% inhibition at 10 μM enzyme concentration) | A (A: 50-90% inhibition at 10 μM enzyme concentration) |  |  |
|  | 50 to 90 |  |  | C (C: IC50 measured: <1 μM) | Oc1cccc(CNc2cncc(-c3ccsc3)c2)c1 [Compound 228, 3-[(5-Thiophen-3-yl-pyridin-3-ylamino)-methyl]-phenol] |  | A (A: 50-90% inhibition at 10 μM enzyme concentration) |  |  |
| 50 to 90 | 50 to 90 | 50 to 90 | > 90 | C (C: IC50 measured: <1 μM) | O=C(O)c1cccc(-c2cncc(NCc3cccc(O)c3)c2)c1 [Compound 246, 3-[5-(3-Hydroxy-benzylamino)-pyridin-3-yl]-benzoic acid] | A (A: 50-90% inhibition at 10 μM enzyme concentration) | A (A: 50-90% inhibition at 10 μM enzyme concentration) |  |  |
| 50 to 90 | 50 to 90 |  |  | C (C: IC50 measured: <1 μM) | CS(=O)(=O)c1ccc(-c2cncc(NCc3cccc(O)c3)c2)cc1 [Compound 206, 3-{[5-(4-Methanesulfonyl-phenyl)-pyridin-3-ylamino]-methyl}-phenol] |  |  |  |  |
| 50 to 90 | 50 to 90 | 50 to 90 |  | C (C: IC50 measured: <1 μM) | Oc1cccc(CNc2cncc(-c3cccnc3)c2)c1 [Compound 159, 3-([3,3′]Bipyridinyl-5-ylaminomethyl)-phenol] | A (A: 50-90% inhibition at 10 μM enzyme concentration) | A (A: 50-90% inhibition at 10 μM enzyme concentration) |  |  |
